ChEMBL document CHEMBL5356995, “Aurones and derivatives as promising New Delhi metallo-β-lactamase (NDM-1) inhibitors” (Bioorg Med Chem, 2024)

How the values were obtained:
[1] = target: Metallo-beta-lactamase type 2 (Bacteria) (UniProt C7C422); assay: Inhibition of bacterial NDM-1 assessed as substrate hydrolysis at 50 uM using imipenem as substrate by spectrophotometric analysis relative to control
Bacteria [2] = assay: Inhibition of bacterial VIM-2 assessed as substrate hydrolysis at 50 uM using imipenem as substrate by spectrophotometric analysis relative to control
Bacteria [3] = assay: Inhibition of bacterial IMP-1 assessed as substrate hydrolysis at 50 uM using imipenem as substrate by spectrophotometric analysis relative to control

Sequence of Metallo-beta-lactamase type 2 (Bacteria) (C7C422 whole entry): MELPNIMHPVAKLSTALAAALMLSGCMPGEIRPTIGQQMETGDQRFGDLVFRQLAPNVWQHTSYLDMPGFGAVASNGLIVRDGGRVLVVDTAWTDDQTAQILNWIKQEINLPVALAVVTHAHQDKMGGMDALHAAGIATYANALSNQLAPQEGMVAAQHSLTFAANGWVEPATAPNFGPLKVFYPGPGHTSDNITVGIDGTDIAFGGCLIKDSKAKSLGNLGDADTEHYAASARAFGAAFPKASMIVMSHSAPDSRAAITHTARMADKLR

## O=C1/C(=C/c2ccc(O)cc2O)Oc2cc(O)cc(O)c21
[1]
  inhibition: < 10%
Bacteria [2]
  inhibition: < 10%
Bacteria [3]
  inhibition: 14%

## O=C1/C(=C/c2ccc3ccccc3c2)Oc2c1ccc(O)c2O
[1]
  inhibition: 50%
Bacteria [2]
  inhibition: < 10%
Bacteria [3]
  inhibition: 19%

## O=C1/C(=C/c2cn(Cc3ccc(Br)cc3)c3ccccc23)Oc2cc(O)cc(O)c21
[1]
  inhibition: 44%
Bacteria [2]
  inhibition: < 10%
Bacteria [3]
  inhibition: 22%

## NCCN[C@H]1CC[C@@H](CC(=O)N[C@H]2Cc3cccc(C(=O)O)c3OB2O)CC1
[1]
  inhibition: > 98%
Bacteria [2]
  inhibition: > 98%
Bacteria [3]
  inhibition: 41%

## CC[C@H](C)Cn1cc(/C=C2\Oc3cc(O)cc(O)c3C2=O)c2ccccc21
[1]
  inhibition: 49%
Bacteria [2]
  inhibition: < 10%
Bacteria [3]
  inhibition: 46%

## COc1cc(/C=C2\Oc3cc(O)ccc3C2=O)ccc1O
[1]
  inhibition: < 10%
Bacteria [2]
  inhibition: 14%
Bacteria [3]
  inhibition: 13%

## CCCCOc1ccc(/C=C2\Oc3cc(O)cc(O)c3C2=O)c(O)c1
[1]
  inhibition: 46%

## O=C1/C(=C/c2ccc(C(F)(F)F)cc2)Oc2c1ccc(O)c2O
[1]
  inhibition: < 10%
Bacteria [2]
  inhibition: < 10%
Bacteria [3]
  inhibition: 17%

## Cc1cccc(Cn2cc(/C=C3\Oc4cc(O)cc(O)c4C3=O)c3ccccc32)c1
[1]
  inhibition: 54%
Bacteria [2]
  inhibition: 11%
Bacteria [3]
  inhibition: 43%

## O=C(O)c1ccc(/C=C2\Oc3c(O)cccc3C2=O)cc1
[1]
  inhibition: 24%
Bacteria [2]
  inhibition: < 10%
Bacteria [3]
  inhibition: < 10%

## CC(C)CCn1cc(/C=C2\Oc3cc(O)cc(O)c3C2=O)c2ccccc21
[1]
  inhibition: 18%
Bacteria [2]
  inhibition: < 10%
Bacteria [3]
  inhibition: 47.1%

## O=C1/C(=C/c2ccc(Cl)cc2)Oc2cc(O)cc(O)c21
[1]
  inhibition: 11%
Bacteria [2]
  inhibition: < 10%
Bacteria [3]
  inhibition: 14%

## COc1ccc(/C=C2\Oc3c(O)cccc3C2=O)cc1
[1]
  inhibition: 20%
Bacteria [2]
  inhibition: < 10%
Bacteria [3]
  inhibition: < 10%

## CN1CCN(c2ccc(/C=C3\Oc4cc(O)ccc4C3=O)cc2)CC1
[1]
  inhibition: < 10%
Bacteria [2]
  inhibition: < 10%
Bacteria [3]
  inhibition: 19%

## O=C1/C(=C/c2ccc(O)c(O)c2)Oc2cccc(O)c21
[1]
  inhibition: 12%
Bacteria [2]
  inhibition: < 10%
Bacteria [3]
  inhibition: < 10%

## Cn1cc(/C=C2\Oc3cc(O)cc(O)c3C2=O)c2ccccc21
[1]
  inhibition: 46%
Bacteria [2]
  inhibition: < 10%
Bacteria [3]
  inhibition: 28%

## COc1cc(OC)c2c(c1)O/C(=C\c1ccc(OC)c(OC)c1OC)C2=O
[1]
  inhibition: < 10%
Bacteria [2]
  inhibition: < 10%
Bacteria [3]
  inhibition: 17%

## O=C1/C(=C/c2ccc(-n3ccnc3)cc2)Oc2cc(O)cc(O)c21
[1]
  inhibition: 51%
Bacteria [2]
  inhibition: < 10%
Bacteria [3]
  inhibition: 23%

## COc1cc(OC)c2c(c1)O/C(=C\c1ccc(-c3cccs3)cc1)C2=O
[1]
  inhibition: 39%
Bacteria [2]
  inhibition: < 10%
Bacteria [3]
  inhibition: 24%

## CN1CCN(c2ccc(/C=C3\Oc4cccc(O)c4C3=O)cc2)CC1
[1]
  inhibition: < 10%
Bacteria [2]
  inhibition: < 10%
Bacteria [3]
  inhibition: 12%

## CCCCOc1ccc(/C=C2\Oc3cc(O)cc(O)c3C2=O)cc1
[1]
  inhibition: 41%
Bacteria [2]
  inhibition: < 10%
Bacteria [3]
  inhibition: 25%

## O=C1/C(=C/c2ccc(F)cc2)Oc2c(O)cccc21
[1]
  inhibition: < 10%
Bacteria [2]
  inhibition: < 10%
Bacteria [3]
  inhibition: < 10%

## COc1cc(OC)c2c(c1)O/C(=C\c1ccc(F)cc1F)C2=O
[1]
  inhibition: 35%
Bacteria [2]
  inhibition: < 10%
Bacteria [3]
  inhibition: 32%

## Cn1cc(/C=C2\Oc3cccc(O)c3C2=O)c2cc(Br)ccc21
[1]
  inhibition: < 10%
Bacteria [2]
  inhibition: < 10%
Bacteria [3]
  inhibition: 21.4%

## COc1ccc(/C=C2\Oc3ccccc3C2=O)c(OC)c1OC
[1]
  inhibition: < 10%
Bacteria [2]
  inhibition: < 10%
Bacteria [3]
  inhibition: < 10%

## O=C1/C(=C/c2c(O)cc(O)cc2O)Oc2c(O)cccc21
[1]
  inhibition: < 10%
Bacteria [2]
  inhibition: < 10%
Bacteria [3]
  inhibition: < 10%

## COc1ccc(/C=C2\Oc3cc(O)cc(O)c3C2=O)cc1
[1]
  inhibition: 38%
Bacteria [2]
  inhibition: < 10%
Bacteria [3]
  inhibition: 20%

## O=C1/C(=C/c2cn(Cc3ccccc3Br)c3ccccc23)Oc2cc(O)cc(O)c21
[1]
  inhibition: < 10%
Bacteria [2]
  inhibition: < 10%
Bacteria [3]
  inhibition: 23%
